In patent publication US11534493B2, “Pharmaceutical compositions of roflumilast in aqueous blends of water-miscible, pharmaceutically acceptable solvents” (ARCUTIS, INC., priority 2017, dated 2022):

Legend:
[1] = aqueous solubility of roflumilast reported in WO95/01338; type: physicochemical; conditions: cited 0.53 mg/l (21° C.) value converted to w/w %
From the text: Roflumilast and its synthesis were described in U.S. Pat. No. 5,712,298 (the “'298 patent”), incorporated herein by reference.* It has long been recognized that pharmaceutical compounds having phosphodiesterase (PDE)-inhibiting properties, such as roflumilast, are useful for treating psoriasis and atopic dermatitis ('298 patent, col 11 lines 52-61) and other chronic inflammatory and allergen-induced dermatoses. For treatment of such dermatoses, roflumilast emulsions, suspensions, gels or solutions for topical application have been described ('298 patent, col 12, lines 37-64). […] This low aqueous solubility has been problematic for the development of parenteral preparations and topical emulsions, suspensions, gels or solutions containing water. In U.S. Pat. No. 9,205,044 (incorporated herein by reference), the poor water solubility of roflumilast was overcome by using an alkoxylated fat, specifically polyoxyethylated 12-hydroxystearic acid, as a co-solvent for parenteral administration.

[2] = Description: (§1) Roflumilast (Batch A14367P from Interquim S.A.), 0.0061 grams, was weighed into a liquid scintillation vial. PG (propylene glycol, Spectrum Chemical lot IEC0004) was added dropwise with mixing to the vial containing roflumilast. After mixing each addition of PG, the tightly capped vial was returned to a water bath set at 25° C.
2.3200 grams of an equimolar blend of PG (Spectrum Chemical lot IEC0004) and distilled water was prepared and added to a scintillation vial containing 0.0012 grams of roflumilast (Batch A14367P from Interquim S.A.). […] An equimolar blend is 80.7% PG and 19.3% water on a weight/weight percent basis.

[3] = remark: listed apart in the source
Description: as §1, with “0.0205” for “0.0061”, “DEGEE (Transcutol P,” for “PG (propylene glycol, Spectrum Chemical”, “146063, Gattefosse)” for “IEC0004)”, “DEGEE,” for “PG,”
0.0111 grams of roflumilast (Batch A14367P from Interquim S.A.) was weighed into a liquid scintillation vial. An equimolar blend of DEGEE (Transcutol P, lot 146063, Gattefosse) and distilled water was prepared and added dropwise with mixing to the vial containing roflumilast. An equimolar blend is 88.3% DEGEE and 11.7% water on a weight/weight percent basis. After mixing each addition of equimolar DEGEE:Water, the tightly capped vial was returned to a water bath set at 25° C.

saturation solubility of roflumilast in water [1]: 0.000053 w/w %
calculated ideal solubility in equimolar PG:Water [2]: 0.0040 w/w %
observed saturation solubility greater than calculated ideal solubility in equimolar PG:Water [2]: 15 fold
observed saturation solubility in PG [2]: 0.3 w/w %
observed saturation solubility in equimolar PG:Water [2]: 0.06 w/w %
calculated ideal solubility in equimolar DEGEE:Water [3]: 0.019 w/w %
observed saturation solubility greater than calculated ideal solubility in equimolar DEGEE:Water [3]: 232 fold
observed saturation solubility in DEGEE [3]: 7.1 w/w %
observed saturation solubility in equimolar DEGEE:Water [3]: 4.4 w/w %
SMILES: O=C(Nc1c(Cl)cncc1Cl)c1ccc(OC(F)F)c(OCC2CC2)c1 [roflumilast, N-(3,5-dichloropyrid-4-yl)-3-cyclopropylmethoxy-4-difluoromethoxybenzamid-e]
